As a reminder, the IC50 is the concentration that gives 50% inhibition.

Each structure is given as a SMILES string.

Drawing on US9708311B2, “Benzimidazole derivatives as EP4 antagonists” (BAYER PHARMA AKTIENGESELLSCHAFT, priority 2012, dated 2017), this text covers IC50 for 25 compounds.

Sequence of human EP4 receptor (P35408 whole entry): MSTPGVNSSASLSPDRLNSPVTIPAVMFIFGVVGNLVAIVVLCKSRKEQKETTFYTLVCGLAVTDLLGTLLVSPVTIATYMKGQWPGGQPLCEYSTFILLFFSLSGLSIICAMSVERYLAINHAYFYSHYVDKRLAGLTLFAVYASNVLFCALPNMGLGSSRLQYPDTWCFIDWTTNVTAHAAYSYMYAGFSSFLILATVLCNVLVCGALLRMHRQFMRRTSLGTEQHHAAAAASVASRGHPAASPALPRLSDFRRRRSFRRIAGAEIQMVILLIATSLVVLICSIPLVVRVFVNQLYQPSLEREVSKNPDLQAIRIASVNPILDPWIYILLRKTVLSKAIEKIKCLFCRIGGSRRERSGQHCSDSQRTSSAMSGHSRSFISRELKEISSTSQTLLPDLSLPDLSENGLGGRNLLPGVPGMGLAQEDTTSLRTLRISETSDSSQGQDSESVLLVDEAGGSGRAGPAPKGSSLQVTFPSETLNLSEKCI

This test concerns the target human EP4 receptor (Homo sapiens (Human), UniProt P35408). Nature of the test: Test for antagonism of the human EP4 receptor signal (cAMP HTRF). The format is cell-based. The note with it: cells expressing hEP4, PGE2 at EC80 (0.4 nM), cAMP TR-FRET; read-out: Antagonism hEP4 IC50. The text has this:
The binding of the agonist prostaglandin E2 (PGE2) to the EP4 subtype of human hPGE2-R (hEP4-R) induces the activation of membrane-bound adenylate cyclases and thus the formation of cAMP. In the presence of the phosphodiesterase inhibitor IBMX, this cAMP accumulates intracellularly and is employed in a competitive detection procedure after cell lysis. In this procedure, it competes with a fluorescence-labelled cAMP (cAMP-d2) for binding to an Eu cryptate-labelled anti-cAMP antibody. In the absence of cellular cAMP, a complex is formed between the Eu cryptate-labelled anti-cAMP antibody and the cAMP-d2 molecule, which after excitation at 337 nm makes possible an energy transfer based on FRET (fluorescence resonance energy transfer) to the cAMP-d2 tracer and leads to a long-lasting fluorescence signal (emission at 665 and 620 nm). This signal is time-resolved, i.e. measured in a suitable measuring apparatus after decay of the background fluorescence (time resolved; TR-FRET). The wave ratio determination (emission 665 nm/emission 620 nm*10000) moreover makes it possible to standardize individual measurement differences in the added amounts of the detection reagents.
By means of prostaglandin E2 administration and increase in the intracellular cAMP, a lowering of the FRET signal occurs, which in the case of an antagonistic substance action increases again.
A further 20 min at room temperature later, the cell lysate is measured according to the manufacturer's instructions in a TR-FRET-suitable measuring apparatus (compare cAMP HTRF assay kit: Cisbio International 62AM6PEJ high range)
(In general: TR-FRET usually uses a lanthanide donor and a delayed reading to cut background.)
As for `CCn1c2ccccc2c2cc(-c3nc4cc(C(=O)NCCOC)ccc4n3CC3CC3)ccc21` [Example 21, 1-(Cyclopropylmethyl)-2-(9-ethyl-9H-carbazol-3-yl)-N-(2-methoxyethyl)-1H-benzimidazole-5-carboxamide], the half-inhibitory concentration (IC50) amounted to 103 nM.
For `COCCn1c(-c2ccc3c(c2)c2ccccc2n3CC2CC2)nc2cc(C(=O)O)ccc21` [Example 36, 2-[9-(Cyclopropylmethyl)-9H-carbazol-3-yl]-1-(2-methoxyethyl)-1H-benzimidazole-5-carboxylic acid], the half-inhibitory concentration (IC50) worked out at 13.1 nM.
As to `CCn1c2ccccc2c2cc(-c3nc4cc(C(=O)OC)ccc4n3CCOC)ccc21` [Example 3, Methyl 2-(9-ethyl-9H-carbazol-3-yl)-1-(2-methoxyethyl)-1H-benzimidazole-5-carboxylate], the IC50 turned out to be 175 nM.
Regarding `CCn1c2ccccc2c2cc(-c3nc4cc(C(=O)NS(=O)(=O)c5cccc(Cl)c5)ccc4n3CCOC)ccc21` [Example 17, N-[(3-Chlorophenyl)sulphonyl]-2-(9-ethyl-9H-carbazol-3-yl)-1-(2-methoxyethyl)-1H-benzimidazole-5-carboxamide], the IC50 was 14.7 nM.
For `CCn1c2ccccc2c2cc(-c3nc4cc(C(=O)N(C)C)ccc4n3CC3CC3)ccc21` [Example 25, 1-(Cyclopropylmethyl)-2-(9-ethyl-9H-carbazol-3-yl)-N,N-dimethyl-1H-benzimidazole-5-carboxamide], the 50% inhibitory concentration (IC50) came out at 86.3 nM.
On to `CCn1c2ccccc2c2cc(-c3nc4cc(C(=O)NS(=O)(=O)c5ccc(OC)cc5)ccc4n3CCOC)ccc21` [Example 19, 2-(9-Ethyl-9H-carbazol-3-yl)-1-(2-methoxyethyl)-N-[(4-methoxyphenyl)sulphonyl]-1H-benzimidazole-5-carboxamide], for which the 50% inhibitory concentration (IC50) was 32.2 nM.
For `CCn1c2ccccc2c2cc(-c3nc4cc(C(=O)NCCOC)ccc4n3CCOC)ccc21` [Example 31, 2-(9-Ethyl-9H-carbazol-3-yl)-N,1-bis(2-methoxyethyl)-1H-benzimidazole-5-carboxamide], the half-inhibitory concentration (IC50) worked out at 42.8 nM.
Regarding `CCn1c2ccccc2c2cc(-c3nc4cc(C(=O)O)ccc4n3C[C@H](O)CO)ccc21` [Example 138, 1-[(2S)-2,3-Dihydroxypropyl]-2-(9-ethyl-9H-carbazol-3-yl)-1H-benzimidazole-5-carboxylic acid], the IC50 worked out at 567 nM.
In the case of `CCn1c2ccccc2c2cc(-c3nc4cc(C(=O)O)ccc4n3CCOC(F)(F)F)ccc21` [Example 130, 2-(9-Ethyl-9H-carbazol-3-yl)-1-[2-(trifluoromethoxy)ethyl]-1H-benzimidazole-5-carboxylic acid], the IC50 turned out to be 14.3 nM.
In the case of `CCn1c2ccccc2c2cc(-c3nc4c(Cl)c(C(=O)O)ccc4n3CC3CC3)ccc21` [Example 8, 4-Chloro-1-(cyclopropylmethyl)-2-(9-ethyl-9H-carbazol-3-yl)-1H-benzimidazole-5-carboxylic acid], the half-maximal inhibitory concentration (IC50) was found to be 19.7 nM.
For `CCn1c2ccccc2c2cc(-c3nc4cc(C(=O)N5CCCC5)ccc4n3CCOC)ccc21` [Example 76, [2-(9-Ethyl-9H-carbazol-3-yl)-1-(2-methoxyethyl)-1H-benzimidazol-5-yl](pyrrolidin-1-yl)-methanone], the IC50 is 41.3 nM.
With `CCn1c2ccccc2c2cc(-c3nc4cc(C(=O)O)ccc4n3CCC3CC3)ccc21` [Example 117, 1-(2-Cyclopropylethyl)-2-(9-ethyl-9H-carbazol-3-yl)-1H-benzimidazole-5-carboxylic acid], the IC50 came out at 22.1 nM.
Next, `CCn1c2ccccc2c2cc(-c3nc4cc(C(=O)O)c(C)cc4n3CC3CC3)ccc21` [Example 110, 1-(Cyclopropylmethyl)-2-(9-ethyl-9H-carbazol-3-yl)-6-methyl-1H-benzimidazole-5-carboxylic acid]: 1180 nM; `CCOC(=O)c1ccc2c(c1)nc(-c1ccc3c(c1)c1ccccc1n3CC)n2CCCOC` [Example 99, Ethyl 2-(9-ethyl-9H-carbazol-3-yl)-1-(3-methoxypropyl)-1H-benzimidazole-5-carboxylate]: 1710 nM.
For the compound `CCn1c2ccccc2c2cc(-c3nc4cc(C(=O)O)ccc4n3CC3CC3)ccc21` [Example 6, 1-(Cyclopropylmethyl)-2-(9-ethyl-9H-carbazol-3-yl)-1H-benzimidazole-5-carboxylic acid], the IC50 is 14.4 nM.
Next, `CCn1c2ccccc2c2cc(-c3nc4cc(C(=O)NCCN5CCOCC5)ccc4n3CCOC)ccc21` [Example 78, 2-(9-Ethyl-9H-carbazol-3-yl)-1-(2-methoxyethyl)-N-[2-(morpholin-4-yl)ethyl]-1H-benzimidazole-5-carboxamide]: 74.3 nM; `CCn1c2ccccc2c2cc(-c3nc4cc(C(=O)O)ccc4n3CCN(C)C)ccc21` [Example 72, 1-[2-(Dimethylamino)ethyl]-2-(9-ethyl-9H-carbazol-3-yl)-1H-benzimidazole-5-carboxylic acid]: 82.5 nM; `CCCn1c2ccccc2c2cc(-c3nc4cc(C(=O)O)ccc4n3CCOC)ccc21` [Example 118, 1-(2-Methoxyethyl)-2-(9-propyl-9H-carbazol-3-yl)-1H-benzimidazole-5-carboxylic acid]: 36.2 nM.
In the case of `CCOC(=O)c1ccc2c(c1)nc(-c1ccc3c(c1)c1ccccc1n3CCOC)n2CCOC` [Example 97, Ethyl 1-(2-methoxyethyl)-2-[9-(2-methoxyethyl)-9H-carbazol-3-yl]-1H-benzimidazole-5-carboxylate], the half-maximal inhibitory concentration (IC50) was determined as 412 nM.
As to `CCn1c2ccccc2c2cc(-c3nc4cc(C(=O)O)c(OC)cc4n3CC3CC3)ccc21` [Example 102, 1-(Cyclopropylmethyl)-2-(9-ethyl-9H-carbazol-3-yl)-6-methoxy-1H-benzimidazole-5-carboxylic acid], the concentration for half-maximal inhibition (IC50) was found to be 2830 nM.
Take `CCn1c2ccc(OC)cc2c2cc(-c3nc4cc(C(=O)O)ccc4n3CC3CC3)ccc21` [Example 43, 1-(Cyclopropylmethyl)-2-(9-ethyl-6-methoxy-9H-carbazol-3-yl)-1H-benzimidazole-5-carboxylic acid]: the IC50 worked out at 54.6 nM.
For the compound `CCn1c2ccccc2c2cc(-c3nc4cc(C(=O)NS(=O)(=O)Cc5ncccc5C)ccc4n3CCOC)ccc21` [Example 68, 2-(9-Ethyl-9H-carbazol-3-yl)-1-(2-methoxyethyl)-N-{[(3-methylpyridin-2-yl)methyl]-sulphonyl}-1H-benzimidazole-5-carboxamide], the half-maximal inhibitory concentration (IC50) amounted to 36.3 nM.
In the case of `CCn1c2ccccc2c2cc(-c3nc4cc(C(=O)NCCN(C)C)ccc4n3CCOC)ccc21` [Example 86, N-[2-(Dimethylamino)ethyl]-2-(9-ethyl-9H-carbazol-3-yl)-1-(2-methoxyethyl)-1H-benzimidazole-5-carboxamide], the IC50 was found to be 245 nM.
Consider `C=CCn1c(-c2ccc3c(c2)c2ccccc2n3CC)nc2cc(C(=O)OC)ccc21` [Example 1, Methyl 1-allyl-2-(9-ethyl-9H-carbazol-3-yl)-1H-benzimidazole-5-carboxylate], for which the IC50 amounted to 3100 nM.
Turning to `CCn1c2ccccc2c2cc(-c3nc4cc(C(=O)N5CCNC(=O)C5)ccc4n3CC3CC3)ccc21` [Example 28, 4-{[1-(Cyclopropylmethyl)-2-(9-ethyl-9H-carbazol-3-yl)-1H-benzimidazol-5-yl]carbonyl}-piperazin-2-one], the IC50 was 122 nM.
